According to patent US20200231614A1, “PSMA TARGETED RADIOHALOGENATED UREAS FOR CANCER RADIOTHERAPY” (THE JOHNS HOPKINS UNIVERSITY, priority 2015, published 2020):
Read-outs that look alike come from different tables or passages of the source.

Test system: PSMA + PC-3 PiP and PSMA − PC-3 flu tumor xenografts
Details: for Biodistribution: PC-3 PiP: PSMA+ tumor xenograft; for Biodistribution: PC-3 flu: PSMA− tumor xenograft
[1] = 21 H post-injection, comparative Table 13

O=C(O)CC[C@H](NC(=O)N[C@@H](CCC(=O)NCCc1ccc([211At])cc1)C(=O)O)C(=O)O [[^211At]HS-549]
Biodistribution: Lrg Int. (1 H post-injection): 1.16 ± 0.20 % ID/g
Biodistribution: Sm int. (1 H post-injection): 5.52 ± 0.82 % ID/g
Biodistribution: bladder (1 H post-injection): 5.85 ± 1.62 % ID/g
Biodistribution: blood (1 H post-injection): 5.53 ± 0.84 % ID/g
Biodistribution: heart (1 H post-injection): 4.34 ± 0.96 % ID/g
Biodistribution: kidney (1 H post-injection): 46.7 ± 8.24 % ID/g
Biodistribution: liver (1 H post-injection): 7.94 ± 2.15 % ID/g
Biodistribution: lung (1 H post-injection): 9.77 ± 1.75 % ID/g
Biodistribution: muscle (1 H post-injection): 1.11 ± 0.29 % ID/g
Biodistribution: spleen (1 H post-injection): 8.79 ± 2.09 % ID/g
Biodistribution: stomach (1 H post-injection): 7.07 ± 2.24 % ID/g
Biodistribution: thyroid (1 H post-injection): 3.24 ± 0.56 % ID/g
Biodistribution: Lrg Int. (2 H post-injection): 4.59 ± 0.81 % ID/g
Biodistribution: Sm int. (2 H post-injection): 3.81 ± 1.24 % ID/g
Biodistribution: bladder (2 H post-injection): 5.04 ± 0.87 % ID/g
Biodistribution: blood (2 H post-injection): 2.87 ± 0.40 % ID/g
Biodistribution: heart (2 H post-injection): 3.36 ± 0.59 % ID/g
Biodistribution: kidney (2 H post-injection): 40.4 ± 15.5 % ID/g
Biodistribution: liver (2 H post-injection): 4.65 ± 1.28 % ID/g
Biodistribution: lung (2 H post-injection): 8.24 ± 2.25 % ID/g
Biodistribution: muscle (2 H post-injection): 0.76 ± 0.18 % ID/g
Biodistribution: spleen (2 H post-injection): 6.13 ± 1.59 % ID/g
Biodistribution: stomach (2 H post-injection): 14.3 ± 3.18 % ID/g
Biodistribution: thyroid (2 H post-injection): 4.11 ± 2.0 % ID/g
Biodistribution: Lrg Int. (21 H post-injection): 0.93 ± 0.41 % ID/g
Biodistribution: Sm int. (21 H post-injection): 1.28 ± 0.30 % ID/g
Biodistribution: bladder (21 H post-injection): 2.78 ± 0.82 % ID/g
Biodistribution: blood (21 H post-injection): 0.92 ± 0.15 % ID/g
Biodistribution: kidney (21 H post-injection): 2.60 ± 0.77 % ID/g
Biodistribution: liver (21 H post-injection): 0.89 ± 0.13 % ID/g
Biodistribution: lung (21 H post-injection): 4.26 ± 0.72 % ID/g
Biodistribution: muscle (21 H post-injection): 0.29 ± 0.09 % ID/g
Biodistribution: spleen (21 H post-injection): 2.31 ± 0.67 % ID/g
Biodistribution: stomach (21 H post-injection): 12.6 ± 6.20 % ID/g
Biodistribution: thyroid (21 H post-injection): 3.78 ± 0.63 % ID/g
Non-target organ uptake: spleen [1]: 2.2 % D/g
Non-target organ uptake: stomach [1]: 12.6 % D/g
Non-target organ uptake: thyroid [1]: 3.8 % D/g
Biodistribution: PC-3 PiP (1 H post-injection): 43.25 ± 9.81 % ID/g
Biodistribution: PC-3 PiP (2 H post-injection): 42.0 ± 7.16 % ID/g
Biodistribution: PC-3 PiP (21 H post-injection): 10.6 ± 9.91 % ID/g
Biodistribution: PC-3 flu (1 H post-injection): 3.48 ± 0.53 % ID/g
Biodistribution: PC-3 flu (2 H post-injection): 2.82 ± 0.60 % ID/g
PSMA positive tumor uptake (in words) (biodistributions of Tables 2, 3, 9, 10): demonstrated PSMA positive tumor uptake
Renal clearance and normal tissue uptake (in words) (compared with YC-I-27): faster renal clearance and lower normal tissue uptake than YC-I-27
Clearance from the kidneys (in words) (compared with [^131I]YC-I-27 and [^211At]YC-I-27): clear from the kidneys giving higher tumor to kidney ratios
In vivo stability of the At-211 label (in words) (from uptake in stomach, spleen and thyroid compared to the ^131I analogue): some instability of the At-211 label

N=C(N)NCc1ccc(C(=O)NCCCC[C@H](NC(=O)N[C@@H](CCC(=O)O)C(=O)O)C(=O)O)cc1[131I] [[^131I] labeled 7 (PSMA-620)]
Biodistribution: Sm int. (1 H post-injection): 3.14 ± 0.66 % ID/g
Biodistribution: bladder (1 H post-injection): 1.99 ± 0.50 % ID/g
Biodistribution: blood (1 H post-injection): 0.95 ± 0.15 % ID/g
Biodistribution: heart (1 H post-injection): 1.29 ± 0.37 % ID/g
Biodistribution: kidney (1 H post-injection): 103 ± 24.0 % ID/g
Biodistribution: liver (1 H post-injection): 8.25 ± 2.47 % ID/g
Biodistribution: lung (1 H post-injection): 3.29 ± 0.56 % ID/g
Biodistribution: muscle (1 H post-injection): 0.56 ± 0.05 % ID/g
Biodistribution: spleen (1 H post-injection): 17.1 ± 3.71 % ID/g
Biodistribution: stomach (1 H post-injection): 2.01 ± 0.41 % ID/g
Biodistribution: thyroid (1 H post-injection): 0.79 ± 0.17 % ID/g
Biodistribution: Sm int. (2 H post-injection): 2.29 ± 0.69 % ID/g
Biodistribution: bladder (2 H post-injection): 1.65 ± 0.48 % ID/g
Biodistribution: blood (2 H post-injection): 0.58 ± 0.08 % ID/g
Biodistribution: heart (2 H post-injection): 0.89 ± 0.18 % ID/g
Biodistribution: kidney (2 H post-injection): 89.0 ± 5.18 % ID/g
Biodistribution: liver (2 H post-injection): 5.62 ± 1.17 % ID/g
Biodistribution: lung (2 H post-injection): 1.99 ± 0.23 % ID/g
Biodistribution: muscle (2 H post-injection): 0.34 ± 0.08 % ID/g
Biodistribution: spleen (2 H post-injection): 6.81 ± 3.20 % ID/g
Biodistribution: stomach (2 H post-injection): 2.55 ± 0.69 % ID/g
Biodistribution: thyroid (2 H post-injection): 0.77 ± 0.25 % ID/g
Biodistribution: Sm int. (4 H post-injection): 1.32 ± 0.68 % ID/g
Biodistribution: bladder (4 H post-injection): 1.96 ± 1.10 % ID/g
Biodistribution: blood (4 H post-injection): 0.30 ± 0.08 % ID/g
Biodistribution: heart (4 H post-injection): 0.75 ± 0.34 % ID/g
Biodistribution: kidney (4 H post-injection): 77.7 ± 38.8 % ID/g
Biodistribution: liver (4 H post-injection): 4.37 ± 2.96 % ID/g
Biodistribution: lung (4 H post-injection): 1.69 ± 0.67 % ID/g
Biodistribution: muscle (4 H post-injection): 0.23 ± 0.10 % ID/g
Biodistribution: spleen (4 H post-injection): 3.63 ± 2.40 % ID/g
Biodistribution: stomach (4 H post-injection): 2.87 ± 0.55 % ID/g
Biodistribution: thyroid (4 H post-injection): 0.75 ± 0.17 % ID/g
Biodistribution: Sm int. (14 H post-injection): 0.42 ± 0.12 % ID/g
Biodistribution: bladder (14 H post-injection): 0.74 ± 0.35 % ID/g
Biodistribution: blood (14 H post-injection): 0.16 ± 0.04 % ID/g
Biodistribution: heart (14 H post-injection): 0.48 ± 0.12 % ID/g
Biodistribution: kidney (14 H post-injection): 17.2 ± 10.7 % ID/g
Biodistribution: liver (14 H post-injection): 0.60 ± 0.28 % ID/g
Biodistribution: lung (14 H post-injection): 1.02 ± 0.27 % ID/g
Biodistribution: muscle (14 H post-injection): 0.10 ± 0.02 % ID/g
Biodistribution: spleen (14 H post-injection): 1.27 ± 0.42 % ID/g
Biodistribution: stomach (14 H post-injection): 2.24 ± 1.08 % ID/g
Biodistribution: thyroid (14 H post-injection): 0.74 ± 0.27 % ID/g
Biodistribution: Sm int. (21 H post-injection): 0.31 ± 0.07 % ID/g
Biodistribution: bladder (21 H post-injection): 0.56 ± 0.37 % ID/g
Biodistribution: blood (21 H post-injection): 0.09 ± 0.07 % ID/g
Biodistribution: heart (21 H post-injection): 0.40 ± 0.11 % ID/g
Biodistribution: kidney (21 H post-injection): 7.52 ± 1.82 % ID/g
Biodistribution: liver (21 H post-injection): 0.33 ± 0.06 % ID/g
Biodistribution: lung (21 H post-injection): 1.00 ± 0.21 % ID/g
Biodistribution: muscle (21 H post-injection): 0.09 ± 0.01 % ID/g
Biodistribution: spleen (21 H post-injection): 0.93 ± 0.37 % ID/g
Biodistribution: stomach (21 H post-injection): 1.91 ± 0.95 % ID/g
Biodistribution: thyroid (21 H post-injection): 0.88 ± 0.13 % ID/g
Biodistribution: PC-3 PiP (1 H post-injection): 16.5 ± 4.78 % ID/g
Biodistribution: PC-3 PiP (2 H post-injection): 17.2 ± 4.34 % ID/g
Biodistribution: PC-3 PiP (4 H post-injection): 18.3 ± 4.27 % ID/g
Biodistribution: PC-3 PiP (14 H post-injection): 15.8 ± 2.42 % ID/g
Biodistribution: PC-3 PiP (21 H post-injection): 13.6 ± 3.33 % ID/g
Biodistribution: PC-3 flu (1 H post-injection): 1.09 ± 0.21 % ID/g
Biodistribution: PC-3 flu (2 H post-injection): 0.80 ± 0.11 % ID/g
Biodistribution: PC-3 flu (4 H post-injection): 0.57 ± 0.21 % ID/g
Biodistribution: PC-3 flu (14 H post-injection): 0.28 ± 0.10 % ID/g
Biodistribution: PC-3 flu (21 H post-injection): 0.20 ± 0.08 % ID/g

O=C(O)CC[C@H](NC(=O)N[C@@H](CSCc1ccc([125I])cc1)C(=O)O)C(=O)O [[^125I] labeled DCIBC, (S)-2-(3-((R)-1-carboxy-2-(4-[^125I]iodobenzylthio)ethyl)ureido)-pentanedioic Acid]
Biodistribution: Lrg Int. (1 H post-injection): 1.2 ± 0.1 % ID/g
Biodistribution: PSMA + tumor (1 H post-injection): 8.0 ± 1.3 % ID/g
Biodistribution: PSMA − tumor (1 H post-injection): 1.3 ± 0.2 % ID/g
Biodistribution: Sm int. (1 H post-injection): 1.2 ± 0.3 % ID/g
Biodistribution: blood (1 H post-injection): 5.8 ± 2.3 % ID/g
Biodistribution: heart (1 H post-injection): 1.5 ± 0.2 % ID/g
Biodistribution: kidney (1 H post-injection): 77 ± 17 % ID/g
Biodistribution: liver (1 H post-injection): 20 ± 4 % ID/g
Biodistribution: lung (1 H post-injection): 2.2 ± 0.4 % ID/g
Biodistribution: muscle (1 H post-injection): 1.0 ± 0.8 % ID/g
Biodistribution: spleen (1 H post-injection): 5.1 ± 2.2 % ID/g
Biodistribution: Lrg Int. (2 H post-injection): 1.2 ± 0.5 % ID/g
Biodistribution: PSMA + tumor (2 H post-injection): 5.6 ± 1.3 % ID/g
Biodistribution: PSMA − tumor (2 H post-injection): 0.9 ± 0.1 % ID/g
Biodistribution: Sm int. (2 H post-injection): 1.1 ± 0.2 % ID/g
Biodistribution: blood (2 H post-injection): 4.9 ± 2.6 % ID/g
Biodistribution: heart (2 H post-injection): 1.1 ± 0.2 % ID/g
Biodistribution: kidney (2 H post-injection): 30 ± 8 % ID/g
Biodistribution: liver (2 H post-injection): 17 ± 4 % ID/g
Biodistribution: lung (2 H post-injection): 1.9 ± 0.5 % ID/g
Biodistribution: muscle (2 H post-injection): 0.5 ± 0.2 % ID/g
Biodistribution: spleen (2 H post-injection): 3.2 ± 0.6 % ID/g
Biodistribution: Lrg Int. (5 H post-injection): 2.7 ± 1.9 % ID/g
Biodistribution: PSMA + tumor (5 H post-injection): 5.5 ± 0.6 % ID/g
Biodistribution: PSMA − tumor (5 H post-injection): 1.0 ± 0.3 % ID/g
Biodistribution: Sm Int. (5 H post-injection): 1.7 ± 1.5 % ID/g
Biodistribution: blood (5 H post-injection): 3.3 ± 1.1 % ID/g
Biodistribution: heart (5 H post-injection): 0.9 ± 0.5 % ID/g
Biodistribution: kidney (5 H post-injection): 18 ± 6 % ID/g
Biodistribution: liver (5 H post-injection): 17 ± 1 % ID/g
Biodistribution: lung (5 H post-injection): 1.0 ± 0.5 % ID/g
Biodistribution: muscle (5 H post-injection): 0.4 ± 0.2 % ID/g
Biodistribution: spleen (5 H post-injection): 3.9 ± 1.1 % ID/g
